Experimental data: patent publication US20230322792A1, “CDK9 INHIBITORS” (Biolexis Therapeutics, Inc., priority 2022, published 2023)
pIC50: −log10 of the molar value.

Biological target: CDK9/CycT1 (Homo sapiens (Human), UniProt P50750)
Experiment: ADP-Glo Kinase Assay
Format: biochemical
Description: ADP-Glo assay kit was purchased from Promega and the CDK9/CycT1 protein and PDKtide substrate were purchased from SignalChem. […] The reaction is started by pre-incubating 4 μL of protein (20 nM), 2 μL of substrate (100 μM), and 2 μL of serial diluted drug in 1× assay buffer (50 mM HEPES, 3 mM MgCl2, 3 mM MnCl2, and 1 mM DTT) for 30 minutes. After pre-incubating, 4 μL of ATP (1 μM) is added to each well and incubated for an additional 90 minutes. The ADP-Glo Reagent (10 μL) and Kinase Detection Reagent (20 μL) are added to each well and incubated as recommended by Promega. The reaction is quantified by measuring luminescence and the IC50 is calculated using GraphPad Prism software.

Sequence of CDK9/CycT1 (P50750 whole entry): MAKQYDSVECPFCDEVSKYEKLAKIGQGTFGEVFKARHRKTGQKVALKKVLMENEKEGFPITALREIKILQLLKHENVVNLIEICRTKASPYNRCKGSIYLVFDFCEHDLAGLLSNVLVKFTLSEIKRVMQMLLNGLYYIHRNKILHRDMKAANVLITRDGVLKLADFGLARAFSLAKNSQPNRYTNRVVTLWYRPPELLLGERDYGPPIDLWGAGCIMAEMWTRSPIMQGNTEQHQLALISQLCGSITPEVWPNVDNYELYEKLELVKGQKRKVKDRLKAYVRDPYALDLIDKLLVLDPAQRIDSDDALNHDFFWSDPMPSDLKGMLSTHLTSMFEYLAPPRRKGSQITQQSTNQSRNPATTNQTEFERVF
Sequence of CDK9/CycT1 (O60563 whole entry partner): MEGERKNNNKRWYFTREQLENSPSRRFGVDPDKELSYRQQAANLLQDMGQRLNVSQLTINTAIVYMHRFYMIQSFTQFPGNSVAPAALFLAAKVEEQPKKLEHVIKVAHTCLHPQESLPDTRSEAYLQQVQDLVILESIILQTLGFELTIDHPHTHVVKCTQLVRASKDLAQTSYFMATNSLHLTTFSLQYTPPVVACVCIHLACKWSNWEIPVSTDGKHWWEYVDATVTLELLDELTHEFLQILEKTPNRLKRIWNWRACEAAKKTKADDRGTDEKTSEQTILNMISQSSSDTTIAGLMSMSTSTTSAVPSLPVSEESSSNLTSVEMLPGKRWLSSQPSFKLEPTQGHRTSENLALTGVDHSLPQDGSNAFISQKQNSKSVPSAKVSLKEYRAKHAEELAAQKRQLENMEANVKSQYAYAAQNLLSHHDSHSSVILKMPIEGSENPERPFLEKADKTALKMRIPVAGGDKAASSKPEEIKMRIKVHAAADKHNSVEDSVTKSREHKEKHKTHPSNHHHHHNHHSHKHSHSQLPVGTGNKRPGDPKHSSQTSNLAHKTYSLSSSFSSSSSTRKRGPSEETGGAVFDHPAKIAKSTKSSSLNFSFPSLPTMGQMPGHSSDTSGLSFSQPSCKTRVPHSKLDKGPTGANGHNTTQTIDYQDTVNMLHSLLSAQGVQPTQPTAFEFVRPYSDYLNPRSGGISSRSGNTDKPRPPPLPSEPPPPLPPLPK

Row | SMILES | pIC50
1 | O[C@@H]1CNCC[C@H]1CNc1nccc(-c2ccn3ncc(C4CC4)c3n2)n1 (relative stereo) [Compound I-4, trans-5-[2-(3-hydroxypiperidin-4-yl)methylaminopyrimidin-4-yl]-3-cyclopropylpyrazolo[1,5-a]pyrimidine] | > 6.00
2 | O[C@@H]1CNCC[C@H]1CNc1nccc(-c2ccn3ncc(C4CCC4)c3n2)n1 (relative stereo) [Compound I-5, trans-5-[2-(3-hydroxypiperidin-4-yl)methylaminopyrimidin-4-yl]-3-cyclobutylpyrazolo[1,5-a]pyrimidine] | 5.30 to 6.00
3 | CC(C)c1cnn2ccc(-c3ccnc(NC[C@@H]4CCNC[C@H]4O)n3)nc12 (relative stereo) [Compound I-6, trans-5-[2-(3-hydroxypiperidin-4-yl)methylaminopyrimidin-4-yl]-3-isopropylpyrazolo[1,5-a]pyrimidine] | > 6.00
4 | O[C@@H]1CNCC[C@H]1CNc1nccc(-c2ccn3nccc3n2)n1 (relative stereo) [Compound I-7, trans-5-[2-(3-hydroxypiperidin-4-yl)methylaminopyrimidin-4-yl]pyrazolo[1,5-a]pyrimidine] | 5.30 to 6.00
5 | c1cc(-c2ccn3ncc(C4CC4)c3n2)nc(N[C@H]2CC[C@H](NC3CCOCC3)CC2)n1 [Compound I-1, trans-N^1-[4-[(3-cyclopropyl)pyrazolo[1,5-a]pyrimidin-5-yl]pyrimidin-2-yl]-N^4-(tetrahydro-2H-pyran-4-yl)cyclohexane-1,4-diamine] | 5.30 to 6.00
6 | c1cc(-c2ccn3ncc(C4CCC4)c3n2)nc(N[C@H]2CC[C@H](NC3CCOCC3)CC2)n1 [Compound I-2, trans-N^1-[4-[(3-cyclobutyl)pyrazolo[1,5-a]pyrimidin-5-yl]pyrimidin-2-yl]-N^4-(tetrahydro-2H-pyran-4-yl)cyclohexane-1,4-diamine] | 5.30 to 6.00
7 | CC(C)c1cnn2ccc(-c3ccnc(N[C@H]4CC[C@H](NC5CCOCC5)CC4)n3)nc12 [Compound I-3, trans-N^1-[4-[(3-isopropyl)pyrazolo[1,5-a]pyrimidin-5-yl]pyrimidin-2-yl]-N^4-(tetrahydro-2H-pyran-4-yl)cyclohexane-1,4-diamine] | > 6.00
8 | c1cc(-c2ccn3nccc3n2)nc(NC2CCNCC2)n1 [Compound I-8, trans-5-[2-(piperidin-4-yl)aminopyrimidin-4-yl]pyrazolo[1,5-a]pyrimidine] | 5.30 to 6.00
9 | N[C@H]1CC[C@@H](Nc2nccc(-c3ccn4nccc4n3)n2)C1 [Compound I-9, (1S, 3R)-[3-[4-[pyrazolo[1,5-a]pyrimidin-5-yl]pyrimidin-2-yl]aminocyclopentan-1-yl]-1,3-diamine] | > 6.00
10 | c1cc(-c2ccn3nccc3n2)nc(N[C@H]2CC[C@H](NC3CCOCC3)CC2)n1 [Compound I-10, trans-N^1-[4-[pyrazolo[1,5-a]pyrimidin-5-yl]pyrimidin-2-yl]-N^4-(tetrahydro-2H-pyran-4-yl)cyclohexane-1,4-diamine] | 5.30 to 6.00
11 | N[C@H]1CC[C@H](Nc2nccc(-c3ccn4nccc4n3)n2)C1 [Compound I-11, (1S, 3S)-[3-[4-[pyrazolo[1,5-a]pyrimidin-5-yl]pyrimidin-2-yl]aminocyclopentan-1-yl]-1,3-diamine] | > 6.00
12 | Cc1cnn2ccc(-c3ccnc(N[C@H]4CC[C@H](N)C4)n3)nc12 [Compound I-12, (1S, 3S)-[3-[4-[3-methylpyrazolo[1,5-a]pyrimidin-5-yl]pyrimidin-2-yl]aminocyclopentan-1-yl]-1,3-diamine] | > 6.00
13 | Cc1cc2nc(-c3ccnc(N[C@H]4CC[C@H](N)C4)n3)ccn2n1 [Compound I-13, (1S, 3S)-[3-[4-[2-methylpyrazolo[1,5-a]pyrimidin-5-yl]pyrimidin-2-yl]aminocyclopentan-1-yl]-1,3-diamine] | 5.00 to 5.30
14 | CC(C)c1cnn2ccc(-c3ccnc(N[C@H]4CC[C@H](N)C4)n3)nc12 [Compound I-14, (1S, 3S)-[3-[4-[3-isopropylpyrazolo[1,5-a]pyrimidin-5-yl]pyrimidin-2-yl]aminocyclopentan-1-yl]-1,3-diamine] | > 6.00
